One series has as its target p53 cancer mutant Y220C. Conditions: cited from earlier work.
A further series concerns BXPC-3 cells (p53-Y220C). Description: Cell viability assay, BXPC3. Conditions: BXPC-3, 72 h; for IC50: Homo sapiens, read-out: IC50 BXPC3.
The subject of series [1] is NUGC4 cells (wild-type p53). Description: Cell viability assay, NUGC4. To be noted: Homo sapiens, NUGC-4; 72 h, p53 WT. The format is cell-based. The procedure: (§1) We also envisaged that masking the carboxylate of MB710 as a simple ethylamide MB725 might influence cell permeability and uptake of the scaffold.
(§2) All cell lines were cultured as previously described. Cell viability was measured in quadruplicate (technical replicates) using the CellTiter-Fluor or CellTiter-Glo 2.0 cell viability assay kits (Promega, USA) as previously described.

Series [2] deals with WI38 cells (non-cancerous fibroblast, p53 WT). The experiment in a line: Cell viability assay, WI38. Conditions: Homo sapiens, WI-38, 72 h, read-out: IC50 WI38.
A further series deals with NUGC3 cells (p53-Y220C). Description: Cell viability assay (CellTiter-Fluor / CellTiter-Glo 2.0), NUGC3. The format is cell-based, human. To be noted: for IC50: Homo sapiens, NUGC-3, 72 h, Y220C cell line. The procedure: as §1, §2
(In general: Cellular ATP, detected with luciferase, serves as a proxy for viable cell number.)

The target in another series is T1, 15N-labeled T-p53C-Y220C (Homo sapiens, UniProt P04637, M133L/N239Y/N268D/V203A/Y220C).
T1 construct: Stabilized p53-Y220C DBD (residues 94–312) was expressed and purified; 6xHis / lipoyl domain / TEV protease cleavage site (N, cleaved yes); made in house; host or cells: E. coli C41
The experiment in a line: 1H/15N-HSQC NMR titration. The format is binding. Conditions: average of at least three fits of shifted peaks. The text has this:
Compound stock solutions were mixed with protein immediately before the NMR measurement.

Series [3] concerns the target T2, stabilized p53-Y220C DBD (residues 94–312) (Homo sapiens, UniProt P04637, M133L/N239Y/N268D/V203A/Y220C).
T2 construct: Stabilized p53-Y220C DBD (residues 94–312) was expressed and purified; 6xHis / lipoyl domain / TEV protease cleavage site (N, cleaved yes); made in house; host or cells: E. coli C41
Description: Differential scanning fluorimetry (DSF), thermal stabilization of Y220C. The format is binding. Conditions: 8 μM protein, 10 × SYPRO Orange, 250 μM ligand. The method, then:
DSF was performed as described. […] All samples were measured in triplicate.

A short description of series [4]: Solubility (qualitative observation). Format: physicochemical.
Another series has as its system SW1088 cells (p53-R273C). The experiment in a line: Cell viability assay, SW1088. Conditions: Homo sapiens, SW1088, 72 h, read-out: IC50 SW1088.
Series [5] can be described thus: Cell viability in other cell lines (lacking Y220C). To be noted: human, at concentrations below 40 μM. Format: cell-based. The text has this: We expected our compounds to show a strong cell viability reduction in cancer cell lines containing the Y220C mutation (NUGC3, HUH-7, BXPC-3), while showing relatively low or no effect on cell lines lacking this mutation (all others). We also envisaged that masking the carboxylate of MB710 as a simple ethylamide MB725 might influence cell permeability and uptake of the scaffold. […] In particular, NUGC3 was the most sensitive cell line.
Fig. 6 Effects of Y220C binders on cancer cell viability. Relative cell viability (Y-axis) of representative cell lines after 72 h treatment with increasing concentrations (X-axis, μM) of 60 (A), MB710 (B), MB725 (C), and previously reported lead compounds PK083 (D), PK7088 (E) and PK5196 (F). The cell line employed in each experiment and their respective p53 status are shown. […] Cell viability was measured in quadruplicate and normalized against the values of blank (viability = 1) and no cell (viability = 0) controls. Data are shown as mean ± SEM.
(§3) WI-38 and BXPC-3 (p53-Y220C) cell lines were purchased from ATCC and HUH-7 (p53-Y220C+/+), HUH-6 (wild-type p53+/+). […] Cell viability was measured in quadruplicate (technical replicates) using the CellTiter-Fluor or CellTiter-Glo 2.0 cell viability assay kits (Promega, USA) as previously described. […]

The next series relates to HUH-7 cells (p53-Y220C). The experiment in a line: Cell viability assay, HUH7. The format is cell-based, human. The method, then:
as §1, §2

For series [6], the system named is p53 target genes in HUH-7 and HUH-7 p53-Y220C KO cells. Description: Real-time PCR of p53 target genes, HUH-7 versus HUH-7 p53-Y220C KO. Conditions: 18 h. The format is cell-based, human. The text has this:
(§4) To confirm that MB725 mediated anticancer effects are dependent on p53-Y220C, we additionally tested the compound in HUH-7 and an in-house CRISPR generated isogenic p53-Y220C knock-out (KO) HUH-7 cell line (Fig. 8). This new cell line contains a frameshift mutation at codon 124 on one allele and deletion of amino acids 125–223 on the other allele, leading to functional inactivation of the p53 DNA-binding domain (aa 92–292). MB725 decreased cell viability by ca. 30–40% more potently in HUH-7 than in the isogenic HUH-7 p53-Y220C KO (Fig. 8, upper panel).
Fig. 8 Assessment of p53-Y220C dependent effect of MB725. Treatment of HUH-7 (p53-Y220C) and HUH-7 p53-Y220C KO cell lines with MB725 for 72 h underscores the enhanced cytotoxicity of MB725 in the presence of p53-Y220C (left panel). […] Cell viability was measured in quadruplicate and normalized against the values of blank (viability = 1) and no cell (viability = 0) controls (left panel). Data are shown as mean ± SEM (Unpaired t-test to test for significance in HUH7 and HUH7 p53 KO viability reduction; *p < 0.05; **p < 0.01; ***p < 0.001). Relative mRNA fold-change was measured in triplicate and normalized against untreated sample according to the ΔΔCt method. […]
Real-time PCR experiments were performed as described. […] The ΔΔCt method was used to quantify relative mRNA levels. Each sample was measured in triplicate.

Series [7] concerns HUH-7 and HUH-7 p53-Y220C KO cells. Description: Cell viability, HUH-7 versus isogenic HUH-7 p53-Y220C KO. The format is cell-based, human. Conditions: 72 h.
Source text: as §4
Fig. 8 Assessment of p53-Y220C dependent effect of MB725. Treatment of HUH-7 (p53-Y220C) and HUH-7 p53-Y220C KO cell lines with MB725 for 72 h underscores the enhanced cytotoxicity of MB725 in the presence of p53-Y220C (left panel). […] Cell viability was measured in quadruplicate and normalized against the values of blank (viability = 1) and no cell (viability = 0) controls (left panel). […] Relative mRNA fold-change was measured in triplicate and normalized against untreated sample according to the ΔΔCt method. […]
as §3

Results on three compounds are retold here after article PMC5986712, “Aminobenzothiazole derivatives stabilize the thermolabile p53 cancer mutant Y220C and show anticancer activity in p53-Y220C cell lines” (European Journal of Medicinal Chemistry, 2018).

Turning to `CCn1c2ccccc2c2cc(CNC)ccc21` [Compound 1], the Kd (usually the equilibrium constant for the complex coming apart) on p53 cancer mutant Y220C is 140 µM. For the same compound, the concentration for half-maximal inhibition (IC50) (commonly the point on the concentration scale where inhibition reaches its midpoint) was 43 µM in the series with BXPC-3 cells (p53-Y220C), 9 µM in [1], 22 µM in series [2] and 14 µM in the series with NUGC3 cells (p53-Y220C).

`CCCCOc1cc(C(=O)O)c(O)c(I)c1-n1cccc1` [Compound 52, 5-butoxy-2-hydroxy-3-iodo-4-(1H-pyrrol-1-yl)benzoic acid]: at 15N-labeled T-p53C-Y220C, the equilibrium dissociation constant (Kd) is 30 µM. The ΔTm (usually the shift of the melting midpoint relative to a reference) at 250 µM in series [3] was found to be 1.4 °C.

Take `CCNC(=O)c1c(O)c(I)c(-n2cccc2)c2sc(N(CC)CC)nc12` [Compound 72, 2-(diethylamino)-N-ethyl-5-hydroxy-6-iodo-7-(1H-pyrrol-1-yl)benzo[d]thiazole-4-carboxamide]: in [4], the “solubility (in words)” value is listed as “reduced solubility”. Also, the cell viability – broadly, a read-out of living cells in per cent, often relative to untreated cells – with BXPC-3 cells (p53-Y220C) (at concentrations below 40 μM) amounted to 30%; in the series on HUH-7 cells (p53-Y220C) (HUH-7, 72 h, at concentrations below 40 μM), 30%; with NUGC3 cells (p53-Y220C) (NUGC3, 72 h, at concentrations below 40 μM), 10%. Moreover, the IC50 is 18 µM in the series on BXPC-3 cells (p53-Y220C); > 120 µM in the series with SW1088 cells (p53-R273C); > 120 µM in series [1]; 10 µM in the series with HUH-7 cells (p53-Y220C) (Homo sapiens, Huh-7, 72 h, Y220C cell line); > 120 µM in series [2]; 10 µM in the series with NUGC3 cells (p53-Y220C). The viability (commonly a read-out of living cells in per cent, often relative to untreated cells) at 72 h in [5] was > 80%. Besides, the “concentration at which an almost maximum effect was achieved” value in the series with NUGC3 cells (p53-Y220C) (NUGC3, 72 h) is “below 10 μM”. Further, the “increase of mRNA levels of p53 target genes (PUMA (BBC3), p21, MDM2, NOXA, BAX)” value in [6] is “more efficiently in HUH-7 than in HUH-7 p53-Y220C KO”. Also, the “cell viability decreased more potently in HUH-7 than in isogenic HUH-7 p53-Y220C KO” value in series [7] is recorded as 30–40%.
